From US20200339625A1, “NOVEL RADIOMETAL-BINDING COMPOUNDS FOR DIAGNOSIS OR TREATMENT OF PROSTATE SPECIFIC MEMBRANE ANTIGEN-EXPRESSING CANCER” (PROVINCIAL HEALTH SERVICES AUTHORITY, priority 2017, published 2020)

What was measured:
[1] = tested on: mice bearing LNCaP xenografts; experiment: Biodistribution of 177Lu-labeled compounds; type: in vivo
Method: 1.17 SPECT/CT Imaging, Biodistribution and Endoradiotherapy Studies
(§1) SPECT/CT imaging and biodistribution were performed using NOD-scid IL2Rgammanu^null (NSG) male mice, and the endoradiotherapy study was conducted using NOD.Cg-Rag1^tm1MomII2rg^tm1WjI/SzJ (NRG) male mice. The mice were maintained and the experiments were conducted in according to the guidelines established by the Canadian Council on Animal Care and approved by Animal Ethics Committee of the University of British Columbia. Mice were anesthetized by inhalation with 2% isoflurane in oxygen, and implanted subcutaneously with 1×10^7 LNCaP cells posterior to the left shoulder. Mice were used for studies when the tumor reached 5-8 mm in diameter 5-6 weeks after inoculation.
For biodistribution studies, the mice were injected with ^177Ludabeled PSMA-617 or HTK01169 (2-4 MBq) as described above. At predetermined time points (1, 4, 24, 72, or 120 h post-injection), the mice were euthanized by CO2 inhalation. Blood was withdrawn immediately from the heart, and the organs/tissues of interest were collected. The collected organs/tissues were weighed and counted using an automated gamma counter. For the blocking study, mice were co-injected with ^177Lu-HTK01169 (2-4 MBq) and 50 nmol of the non-radioactive standard, and organs/tissues of interest were collected at 4 h post-injection.

[2] = tested on: LNCaP tumors; experiment: Radiation dosimetry calculation, unit density sphere model; design: species or system mice
Method: Internal dosimetry estimates were calculated using the organ level internal dose assessment (OLINDA) software v.2.0.^37 These estimates were performed for the mouse using the 25 g MOBY phantom,^38 for humans using the NURBS model for the adult male,^39 and for the tumors using the previously reported unit density sphere model.^40 All the phantoms and the sphere model are available in OLINDA and require the input of the total number of decays normalized by injected activity in units of MBq×h/MBq for each of the source organ/tumor.
Lastly, the numbers of decays in the tumors were also calculated based on the biodistribution data of the mice and the values were inputted into the sphere model available in OLINDA.

[3] = tested on: LNCaP tumor-bearing mice; experiment: Endoradiotherapy study; type: in vivo; conditions: for Median survival: n=8
Method: as §1
For radiotherapy study, tumor-bearing mice were injected with saline (the control group), ^177Lu-PSMA-617 (18.5 MBq) or ^177Lu-HTK01169 (18.5, 9.3, 4.6, or 2.3 MBq) (n=8 per group). Tumor size and body weight were measured twice a week from the date of injection (Day 0) until completion of the study (Day 120). Endpoint criteria were defined as >20% weight loss, tumor volume >1000 mm^3, or active ulceration of the tumor.

[4] = 4 h post-injection, blocking (co-injection of 50 nmol non-radioactive standard)

## O=C([O-])CN1CCN(CC(=O)[O-])CCN(CC(=O)NCCCC[C@H](NC(=O)[C@H](CCC(=O)O)NC(=O)CCCc2ccc(I)cc2)C(=O)NC[C@H]2CC[C@H](C(=O)N[C@@H](Cc3ccc4ccccc4c3)C(=O)NCCCC[C@H](NC(=O)N[C@@H](CCC(=O)O)C(=O)O)C(=O)O)CC2)CCN(CC(=O)[O-])CC1.[177Lu+3] [^177Lu-HTK01169]
[1]; 1 h post-injection
  Adrenal glands uptake: 9.94 ± 2.10 % ID/g
  Blood uptake: 16.6 ± 1.85 % ID/g
  Bone uptake: 0.93 ± 0.31 % ID/g
  Brain uptake: 0.18 ± 0.07 % ID/g
  Fat uptake: 3.20 ± 1.03 % ID/g
  Heart uptake: 3.93 ± 0.95 % ID/g
  Intestine uptake: 1.64 ± 0.20 % ID/g
  Kidneys uptake: 51.1 ± 4.07 % ID/g
  Liver uptake: 2.55 ± 0.45 % ID/g
  Lung uptake: 7.11 ± 0.98 % ID/g
  Muscle uptake: 1.39 ± 0.12 % ID/g
  Pancreas uptake: 1.77 ± 0.24 % ID/g
  Seminal uptake: 1.02 ± 0.15 % ID/g
  Spleen uptake: 10.6 ± 4.07 % ID/g
  Stomach uptake: 0.50 ± 0.15 % ID/g
  Testes uptake: 2.14 ± 0.31 % ID/g
  Tumor uptake: 13.4 ± 3.26 % ID/g
  Tumor/blood ratio: 0.81 ± 0.18
  Tumor/kidney ratio: 0.26 ± 0.05
  Tumor/muscle ratio: 9.76 ± 2.65
[1]; 4 h post-injection
  Adrenal glands uptake: 9.91 ± 2.55 % ID/g
  Blood uptake: 10.2 ± 1.40 % ID/g
  Bone uptake: 0.79 ± 0.30 % ID/g
  Brain uptake: 0.16 ± 0.01 % ID/g
  Fat uptake: 2.95 ± 0.81 % ID/g
  Heart uptake: 2.50 ± 0.54 % ID/g
  Intestine uptake: 1.25 ± 0.17 % ID/g
  Kidneys uptake: 85.7 ± 7.11 % ID/g
  Liver uptake: 1.97 ± 0.05 % ID/g
  Lung uptake: 5.92 ± 0.22 % ID/g
  Muscle uptake: 0.98 ± 0.06 % ID/g
  Pancreas uptake: 1.51 ± 0.28 % ID/g
  Seminal uptake: 1.07 ± 0.62 % ID/g
  Spleen uptake: 8.05 ± 3.62 % ID/g
  Stomach uptake: 0.57 ± 0.11 % ID/g
  Testes uptake: 1.91 ± 0.63 % ID/g
  Tumor/blood ratio: 2.71 ± 0.68
  Tumor/kidney ratio: 0.32 ± 0.07
  Tumor/muscle ratio: 28.0 ± 6.92
[1]; [4]
  Adrenal glands uptake: 0.68 ± 0.24 % ID/g
  Blood uptake: 0.96 ± 0.25 % ID/g
  Bone uptake: 0.12 ± 0.04 % ID/g
  Brain uptake: 0.03 ± 0.00 % ID/g
  Fat uptake: 0.25 ± 0.13 % ID/g
  Heart uptake: 0.41 ± 0.07 % ID/g
  Intestine uptake: 0.25 ± 0.10 % ID/g
  Kidneys uptake: 5.50±1.95 % ID/g
  Liver uptake: 0.51 ± 0.08 % ID/g
  Lung uptake: 0.89 ± 0.29 % ID/g
  Muscle uptake: 0.12 ± 0.02 % ID/g
  Pancreas uptake: 0.19 ± 0.02 % ID/g
  Seminal uptake: 0.19 ± 0.13 % ID/g
  Spleen uptake: 0.61 ± 0.17 % ID/g
  Stomach uptake: 0.19 ± 0.10 % ID/g
  Testes uptake: 0.58 ± 0.14 % ID/g
  Tumor uptake: 1.70±0.28 % ID/g
  Tumor/blood ratio: 1.81 ± 0.31
  Tumor/kidney ratio: 0.32 ± 0.06
  Tumor/muscle ratio: 13.7 ± 1.47
[1]; 24 h post-injection
  Adrenal glands uptake: 4.53 ± 1.10 % ID/g
  Blood uptake: 2.10 ± 0.41 % ID/g
  Bone uptake: 0.26 ± 0.05 % ID/g
  Brain uptake: 0.06 ± 0.01 % ID/g
  Fat uptake: 2.06 ± 0.71 % ID/g
  Heart uptake: 0.83 ± 0.25 % ID/g
  Intestine uptake: 0.45 ± 0.13 % ID/g
  Kidneys uptake: 125 ± 16.4 % ID/g
  Liver uptake: 1.03 ± 0.22 % ID/g
  Lung uptake: 1.98 ± 0.44 % ID/g
  Muscle uptake: 0.39 ± 0.07 % ID/g
  Pancreas uptake: 0.59 ± 0.12 % ID/g
  Seminal uptake: 0.36 ± 0.13 % ID/g
  Spleen uptake: 3.70 ± 1.67 % ID/g
  Stomach uptake: 0.34 ± 0.12 % ID/g
  Testes uptake: 1.19 ± 0.23 % ID/g
  Tumor uptake: 55.9±12.5 % ID/g
  Tumor/blood ratio: 26.7 ± 2.79
  Tumor/kidney ratio: 0.45 ± 0.13
  Tumor/muscle ratio: 142 ± 14.4
[1]; 72 h post-injection
  Adrenal glands uptake: 1.65 ± 0.46 % ID/g
  Blood uptake: 0.28 ± 0.10 % ID/g
  Bone uptake: 0.11 ± 0.03 % ID/g
  Brain uptake: 0.03 ± 0.00 % ID/g
  Fat uptake: 1.34 ± 0.72 % ID/g
  Heart uptake: 0.28 ± 0.04 % ID/g
  Intestine uptake: 0.13 ± 0.06 % ID/g
  Kidneys uptake: 37.8 ± 18.7 % ID/g
  Liver uptake: 0.46 ± 0.12 % ID/g
  Lung uptake: 0.51 ± 0.17 % ID/g
  Muscle uptake: 0.11 ± 0.02 % ID/g
  Pancreas uptake: 0.15 ± 0.02 % ID/g
  Seminal uptake: 0.12 ± 0.04 % ID/g
  Spleen uptake: 1.13 ± 0.32 % ID/g
  Stomach uptake: 0.17 ± 0.12 % ID/g
  Testes uptake: 0.62 ± 0.11 % ID/g
  Tumor uptake: 53.6 ± 8.06 % ID/g
  Tumor/blood ratio: 204 ± 63.5
  Tumor/kidney ratio: 1.63 ± 0.58
  Tumor/muscle ratio: 519 ± 91.5
[1]; 120 h post-injection
  Adrenal glands uptake: 0.65 ± 0.21 % ID/g
  Blood uptake: 0.06 ± 0.03 % ID/g
  Bone uptake: 0.08 ± 0.01 % ID/g
  Brain uptake: 0.03 ± 0.00 % ID/g
  Fat uptake: 0.73 ± 0.13 % ID/g
  Heart uptake: 0.16 ± 0.07 % ID/g
  Intestine uptake: 0.10 ± 0.06 % ID/g
  Kidneys uptake: 8.63 ± 2.51 % ID/g
  Liver uptake: 0.34 ± 0.23 % ID/g
  Lung uptake: 0.17 ± 0.04 % ID/g
  Muscle uptake: 0.04 ± 0.01 % ID/g
  Pancreas uptake: 0.07 ± 0.02 % ID/g
  Seminal uptake: 0.08 ± 0.04 % ID/g
  Spleen uptake: 1.18 ± 0.55 % ID/g
  Stomach uptake: 0.21 ± 0.20 % ID/g
  Testes uptake: 0.40 ± 0.05 % ID/g
  Tumor uptake: 56.4±13.2 % ID/g
  Tumor/blood ratio: 1146 ± 722
  Tumor/kidney ratio: 7.12 ± 3.11
  Tumor/muscle ratio: 1708 ± 718
[1]; LNCaP tumor xenografts
  fold higher peak tumor uptake than 177Lu-PSMA-617: 3.7 fold
[1]; mouse, in vivo
  blood clearance (qualitative): relatively slower than ^177Lu-PSMA-617
[1]; peak over 1-120 h
  peaked tumor uptake: 55.9±12.5 % ID/g
[2]
  kinetic uptake value used as input in OLINDA: 31.72 MBq-h/MBq
[3]; 2.3-18.5 MBq
  change of tumor size over time, dependence on injected radioactivity: higher radioactivity leading to more effective and prolonged tumor growth inhibition
[3]; 2.3 MBq injected
  Median survival: 28 days
[3]; 4.6 MBq injected
  Median survival: 61 days
[3]; 9.3 MBq injected
  Median survival: 103 days
[3]; 18.5 MBq
  survival until end of study (Day 120): survived until the end of the study
[3]; 18.5 MBq injected
  Median survival: >120 days
[3]; mouse, in vivo
  administered activity needed for similar treatment efficacy, relative to 177Lu-PSMA-617: only a quarter
